The text below walks through data of ChEMBL document CHEMBL5584224, “Recent advances in c-Met-based dual inhibitors in the treatment of cancers” (Eur J Med Chem, 2024).

Each structure is given as a SMILES string.

In one assay the test system is MHCC97H. In words: Antiproliferative activity against human MHCC97H cells assessed as cell growth inhibition incubated for 48 hrs by MTT assay. It counts as functional, cell-based.
For a further assay, the system named is MKN-45. Nature of the assay: Antiproliferative activity against human MKN-45 cells assessed as cell growth inhibition incubated for 48 hrs by MTT assay. Format: functional, cell-based. The conditions noted are these: MKN-45, 48 h. In general terms: Tetrazolium assays rely on reduction of a dye to a coloured formazan, in cell work by metabolically active cells.

The test system of another assay is HCCLM3. In words: Cytotoxicity against human HCCLM3 cells assessed as cell growth inhibition incubated for 48 hrs by MTT assay. The conditions noted are these: HCCLM3, 48 h. It counts as functional, cell-based.
Assay [1] relates to HepG2. In words: Antiproliferative activity against human HepG2 cells assessed as reduction in cell viability incubated for 72 hrs by MTT assay. Format: functional, cell-based. The conditions noted are these: HepG2, 72 h.
In assay [2] the test system is HepG2. Nature of the assay: Antitumor activity against human HepG2 cells xenografted in mouse model assessed as tumor growth inhibition at 16 mg/kg/day for 7 days relative to control. Format: functional. The arrangement: scale not given: the % may be the effect or the level left. The conditions noted are these: time 7 day. (Xenograft models place foreign cells or tissue in a host animal.)

The subject of assay [3] is HepG2. Nature of the assay: Antitumor activity against human HepG2 cells xenografted in mouse model assessed as tumor growth inhibition at 48 mg/kg/day for 7 days relative to control. Format: functional. The arrangement: scale not given: the % may be the effect or the level left. As to conditions: time 7 day.
The next assay concerns A549. In words: Antiproliferative activity against human A549 cells assessed as reduction in cell viability incubated for 24 hrs by MTT assay. Format: functional, cell-based. As to conditions: A549, 24 h.
The next assay concerns NCI-H322M. Nature of the assay: Antiproliferative activity against human NCI-H322M cells assessed as cell growth inhibition incubated for 72 hrs by MTT assay. It counts as functional, cell-based.
The target of assay [4] is Fibroblast growth factor receptor 1 (Homo sapiens, UniProt P11362). Nature of the assay: Inhibition of FGFR1 (unknown origin).
Sequence of Fibroblast growth factor receptor 1 (P11362 whole entry): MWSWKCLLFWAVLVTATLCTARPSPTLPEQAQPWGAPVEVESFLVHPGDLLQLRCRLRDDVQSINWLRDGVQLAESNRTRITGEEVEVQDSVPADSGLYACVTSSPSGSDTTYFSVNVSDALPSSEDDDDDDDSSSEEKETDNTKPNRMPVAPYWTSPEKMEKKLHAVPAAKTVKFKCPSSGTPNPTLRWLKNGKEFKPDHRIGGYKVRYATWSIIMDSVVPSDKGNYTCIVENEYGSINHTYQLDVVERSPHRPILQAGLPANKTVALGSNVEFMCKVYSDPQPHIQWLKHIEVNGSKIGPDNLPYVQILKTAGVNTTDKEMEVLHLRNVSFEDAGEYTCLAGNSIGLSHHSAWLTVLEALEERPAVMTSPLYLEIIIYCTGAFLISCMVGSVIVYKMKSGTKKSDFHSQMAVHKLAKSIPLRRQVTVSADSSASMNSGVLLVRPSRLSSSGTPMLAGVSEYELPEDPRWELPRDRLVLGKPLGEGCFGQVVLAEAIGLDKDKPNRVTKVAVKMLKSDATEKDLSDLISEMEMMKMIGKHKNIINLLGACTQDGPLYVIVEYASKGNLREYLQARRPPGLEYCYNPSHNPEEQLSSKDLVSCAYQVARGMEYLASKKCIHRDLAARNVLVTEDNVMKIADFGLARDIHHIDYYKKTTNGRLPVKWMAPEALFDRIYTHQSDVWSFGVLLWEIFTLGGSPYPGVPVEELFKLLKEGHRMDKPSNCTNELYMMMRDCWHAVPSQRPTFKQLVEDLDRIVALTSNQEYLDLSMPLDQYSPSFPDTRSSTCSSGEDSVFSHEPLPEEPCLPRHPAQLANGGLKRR
Assay [5] deals with Fibroblast growth factor receptor 2 (Homo sapiens, UniProt P21802). In words: Inhibition of FGFR2 (unknown origin).
Sequence of Fibroblast growth factor receptor 2 (P21802 whole entry): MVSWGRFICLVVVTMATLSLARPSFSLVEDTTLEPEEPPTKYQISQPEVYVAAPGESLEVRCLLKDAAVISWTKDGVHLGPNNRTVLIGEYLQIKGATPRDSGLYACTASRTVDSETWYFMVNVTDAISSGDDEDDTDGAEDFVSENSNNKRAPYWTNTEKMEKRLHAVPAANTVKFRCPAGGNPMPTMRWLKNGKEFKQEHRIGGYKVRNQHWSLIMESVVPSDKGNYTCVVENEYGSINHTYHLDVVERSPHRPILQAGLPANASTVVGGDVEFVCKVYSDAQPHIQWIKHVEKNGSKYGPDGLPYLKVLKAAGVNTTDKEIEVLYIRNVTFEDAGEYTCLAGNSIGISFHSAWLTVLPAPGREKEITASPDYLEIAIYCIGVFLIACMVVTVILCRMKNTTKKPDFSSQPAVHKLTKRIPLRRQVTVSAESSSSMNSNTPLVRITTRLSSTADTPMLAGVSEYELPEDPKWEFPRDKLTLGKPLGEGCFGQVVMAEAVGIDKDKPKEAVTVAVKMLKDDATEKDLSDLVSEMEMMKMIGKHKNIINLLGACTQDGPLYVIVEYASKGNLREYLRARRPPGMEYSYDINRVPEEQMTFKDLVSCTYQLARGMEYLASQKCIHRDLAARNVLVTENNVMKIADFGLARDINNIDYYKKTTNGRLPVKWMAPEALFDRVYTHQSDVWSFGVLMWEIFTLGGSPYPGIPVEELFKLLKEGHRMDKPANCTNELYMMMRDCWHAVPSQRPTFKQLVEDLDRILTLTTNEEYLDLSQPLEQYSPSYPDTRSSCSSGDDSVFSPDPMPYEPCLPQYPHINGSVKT
For assay [6], the target named is Fibroblast growth factor receptor 3 (Homo sapiens, UniProt P22607). Nature of the assay: Inhibition of FGFR3 (unknown origin).
Sequence of Fibroblast growth factor receptor 3 (P22607 whole entry): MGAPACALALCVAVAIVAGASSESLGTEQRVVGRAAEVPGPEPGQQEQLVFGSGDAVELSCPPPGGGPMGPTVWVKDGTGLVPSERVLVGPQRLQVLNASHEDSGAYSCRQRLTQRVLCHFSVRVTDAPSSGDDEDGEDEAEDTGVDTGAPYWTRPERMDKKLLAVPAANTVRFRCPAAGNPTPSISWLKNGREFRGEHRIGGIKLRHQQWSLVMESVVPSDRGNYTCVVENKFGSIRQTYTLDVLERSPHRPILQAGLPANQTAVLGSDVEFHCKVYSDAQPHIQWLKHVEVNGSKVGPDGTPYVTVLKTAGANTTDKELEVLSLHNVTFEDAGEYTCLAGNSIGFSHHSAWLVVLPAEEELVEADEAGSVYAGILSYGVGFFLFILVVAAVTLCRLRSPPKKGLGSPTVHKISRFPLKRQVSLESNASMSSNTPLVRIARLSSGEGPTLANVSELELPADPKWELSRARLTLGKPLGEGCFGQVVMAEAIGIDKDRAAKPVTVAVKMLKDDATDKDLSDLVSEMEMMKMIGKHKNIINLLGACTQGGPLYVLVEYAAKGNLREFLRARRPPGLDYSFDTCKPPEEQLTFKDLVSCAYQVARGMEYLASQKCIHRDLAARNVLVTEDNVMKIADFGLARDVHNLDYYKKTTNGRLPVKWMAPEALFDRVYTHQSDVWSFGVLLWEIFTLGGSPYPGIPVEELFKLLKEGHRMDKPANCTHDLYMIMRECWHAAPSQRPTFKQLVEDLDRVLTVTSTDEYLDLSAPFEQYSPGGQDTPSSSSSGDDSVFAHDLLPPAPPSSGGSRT

Usually IC50 stands for the point on the concentration scale where inhibition reaches its midpoint. As to `[2H][C@@](C)(c1cccc(-c2ncc(OCC3CCN(C)CC3)cn2)c1)n1nc(-c2cccc(C#N)c2)ccc1=O`, the IC50 was 4.3 nM with MHCC97H and 1 nM in the assay with MKN-45.

Consider `CN(C)CCC[Se]c1cnc(-c2cccc(Cn3nc(-c4cccc(C#N)c4)ccc3=O)c2)nc1`, for which the IC50 with HCCLM3 was determined as 13 nM.

As for `Cc1ccccc1NS(=O)(=O)c1ccc2c(c1)/C(=C/c1nc3ccccc3[nH]1)C(=O)N2.Cl`, the half-maximal inhibitory concentration (IC50) with HepG2 [1] came out at 1460 nM. Besides, the Activity in the assay on HepG2 [2] and in the assay on HepG2 [3] was 65.2% each time.

`C/C=C(/C=O)[C@@H](CC=O)CC(=O)OCCc1ccc(O)cc1` [(-)-OLEOCANTHAL]: the figures for the IC50 in the assay on A549 and with NCI-H322M were 10000 nM and 26300 nM, respectively.

With `O=C1Nc2ccc(CN3C(=O)CSC3=O)cc2/C1=C/c1cc(CN2CCOCC2)c[nH]1`, the IC50 amounted to 18 nM in assay [4], 17 nM in assay [5] and 15 nM in [6].
